Laboratory results published in paper PMC8653149, “Cyclic Analogs of Desferrioxamine E Siderophore for ^68Ga Nuclear Imaging: Coordination Chemistry and Biological Activity in Staphylococcus aureus” (Inorganic Chemistry, 2021).

Tests used:
[1] = Distribution coefficient (logD) of ^68Ga-labeled ligands between octanol and PBS
[2] = Fe(III) complex stability constants by potentiometric and pH-dependent UV–vis titrations; format: physicochemical; conditions: calculated for [L] = 1 × 10^–4, [M] = 1 × 10^–5 at pH 7.4
Procedure: Therefore, the stability constants of the first species formed in solution were determined from the spectrophotometric pH-dependent batch titrations carried out in the pH range of around 0.1–2 (Figure S3), by following the changes in the intense LMCT band of the metal complex. These values were further used as constant values in spectrophotometric or potentiometric titrations carried out in the pH range from 2 to 11 (Figure S3) to get the overall stability constants, logβFeL (Table S5). […] Metal–metal competition titrations were carried out at pH 1.6 for FOX 2-5 and FOX 2-4 and at pH 2 for the rest of the analogs and the native compound.
Potentiometric titrations were performed using an automatic titrator system Titrando 905 (Metrohm) equipped with a 800 Dosino dosing unit and a microburet with a volume of 2 mL. A combined glass electrode was calibrated each day for hydrogen ion concentration by 0.1 M HClO4 with CO2-free 0.1 M NaOH solutions. A stream of high purity grade argon, presaturated with water vapor, passed over the surface of the solution cell, filled with 3 mL of the studied solution. For each system, a minimum of four independent titrations was performed. The purity of ligand and accurate concentration of ligand solution were determined before each experiment with the Gran method[68] by potentiometric titration of the 3 mL sample of the ligand, with [L] ∼ 1 × 10^–3 M. In separate potentiometric titrations, the metal-to-ligand ratio was 1:1, and the concentration of metal was 2 × 10^–3 M. The potentiometric data were refined to obtain the overall Fe(III)-FOXE and Ga(III)-FOXE derivative binding constants (logβFe(III)L, logβGa(III)L).
The absorption measurements (200 nm–800 nm) were performed on a Varian Cary 300 Bio UV–visible spectrophotometer. The solutions were measured in high precision Quartz […] cuvettes (1 and 3 mL) with 1 cm lightpath (Hellma).
Two series of experiments were performed: (i) in the pH range of 0.1–2 and (ii) between pH 2 and 11. In the first series of experiments, (i) the stock solution of the ligand was divided into various batches followed by Fe(III) addition, with a constant total volume of 2 mL, [Fe(III)] = 2 × 10^–4 M, and a metal-to-ligand molar ratio of 1:1. The pH was controlled by concentration of the perchloric acid. After preparation, each solution was allowed to equilibrate for 1 h at 25 °C, and then its UV–vis spectrum was recorded.
The experimental sets with over 140 points collected in the pH range 2–11 for a single potentiometric measurement were imported to the […] software,[69] which uses nonlinear least-squares methods for data treatment. Spectroscopic data were refined using SPECFIT/32 software, which uses factor analysis to reduce the absorbance matrix and to extract the eigenvalues prior to the multiwavelength fit of the reduced data set according to the Marquardt algorithm and adjusts the absorptivity and the stability constants of the species formed at equilibrium.[70]−[72] Standard deviation was used for the calculation of the uncertainties in logβ. Speciation plots were prepared using HYSS software,[73] implementing data gathered in Tables S4, S5, and S8. Raw data was processed using Origin 7.0.

[3] = Ga(III) complex stability constants by Fe(III)–Ga(III) metal–metal competition, potentiometric and UV–vis pH-metric titrations; format: physicochemical; conditions: for pKNHOH (pK of [GaL] formation from [GaHL]+): T = 25 °C; for pKNHOH (pK of [GaL] formation from [GaHL]+) / logβ[GaHL]+ / logβ[GaL]: I = 0.1 M NaClO4; for pGa(III): calculated, pH 7.4; for logβ[GaHL]+: competition UV-Vis titrations; for logβ[GaHL]+ / logβ[GaL]: M:L 1:1, T = 25°C
Source text: The next step was to determine the coordination specificity of investigated ligands toward Ga(III) ions. This is a somewhat challenging task because it requires indirect methods since the investigated complexes started to form in a very acidic environment, where potentiometric measurements were not accurate owing to the error of the glass electrode,[55],[56] and gallium is spectroscopically silent in UV–vis. To bypass this inconvenience, we implemented metal–metal competition assays. After addition of a significant molar excess of Ga(III), the LMCT band of Fe(III)-FOXE analog complexes was almost fully silenced as Ga(III) replaced Fe(III) in its complexes (Figure S5). By implementing those spectral changes, we were able to calculate the stability constants of the Ga(III)-FOXE analog species present below or around pH 2, [GaHL]^+ (Table S8). Stability constants for the [GaL] species, present above pH 2, could be determined by potentiometric titrations for Ga(III)-FOX 2-2, 2-3, 2-4, and 3-5, with logβ of [GaHL]^+ fixed in the calculations (Table S8). For Ga(III)-FOX 2-5, we could not observe any deprotonation step using this methodology. To confirm this behavior, UV–vis titration of the Ga(III)-FOX 2-5 analog complex was performed in the 200–300 nm spectral range (Figure S6) corresponding to the hydroxamate groups’ protonation state.[57]−[59] […] Above pH 4, there were no significant changes in maxima localization or absorbance intensity. Above pH 9, absorbance started to rise again, which indicated complex dissociation. […] Overall, the data indicated a decreased stability of [GaL] species when decreasing or increasing the ring size of Ga(III)-FOX 2-5, as reflected by pKNHOH (Table S8). Implementing this full coordination specification of Ga(III)-FOX complexes, we were able to calculate speciation plots which are presented in Figure 1 for the most efficient analogs FOX 2-4 and FOX 2-5, given here as examples, and in Figure S7 for others.
Proposed biomimetic analogs of cyclic siderophore FOXE bind Fe(III) ions starting from pH around 0, and the complexation is essentially complete far below or around pH of 2. Therefore, the stability constants of the first species formed in solution were determined from the spectrophotometric pH-dependent batch titrations carried out in the pH range of around 0.1–2 (Figure S3), by following the changes in the intense LMCT band of the metal complex. These values were further used as constant values in spectrophotometric or potentiometric titrations carried out in the pH range from 2 to 11 (Figure S3) to get the overall stability constants, logβFeL (Table S5). Since Ga(III)-FOX complexes present similar coordination properties, the first species start to form below pH 2 as well. However, in this case, we have used indirect methods to determine stability constants for Ga(III)-FOXE analogs and the Ga(III) complex with native FOXE, as Ga(III) complexes are spectroscopically silent in the UV–vis region. Metal–metal competition titrations were carried out at pH 1.6 for FOX 2-5 and FOX 2-4 and at pH 2 for the rest of the analogs and the native compound. The intense LMCT band of the Fe(III) complex was silenced after addition of a fixed volume of Ga(III) ions (Figure S5).
Potentiometric titrations were performed using an automatic titrator system Titrando 905 (Metrohm) equipped with a 800 Dosino dosing unit and a microburet with a volume of 2 mL. A combined glass electrode was calibrated each day for hydrogen ion concentration by 0.1 M HClO4 with CO2-free 0.1 M NaOH solutions. A stream of high purity grade argon, presaturated with water vapor, passed over the surface of the solution cell, filled with 3 mL of the studied solution. For each system, a minimum of four independent titrations was performed. […]

[4] = potentiometric, [L] = 1·10^-3 M

SMILES | logD at 20 min [1] | pFe(III) [2] | pKNHOH (pK of [GaL] formation from [GaHL]+) [3] | pGa(III) [3] | logβ[GaHL]+ ([3]; [L] = 1·10^-4 M) | logβ[GaL] [3, 4] | logβ[GaL] ([3]; UV-Vis (metal–metal competition) titrations, [L] = 1·10^-4 M)
O=C1CCCN(O)C(=O)CCNC(=O)CCCN(O)C(=O)CCNC(=O)CCCN(O)C(=O)CCN1 [FOX 2-3] | -2.96 | 22.7 | 2.28 | 20.8 | 28.30 (4) | 26.02 (1) | –
O=C1CCN(O)C(=O)CCNC(=O)CCN(O)C(=O)CCNC(=O)CCN(O)C(=O)CCN1 [FOX 2-2] | -2.66 | 21.5 | – | 21.4 | 28.48 (4) | 26.52 (5) | –

Second part, the molecule after the results:

logD at 20 min [1] | pFe(III) [2] | pKNHOH (pK of [GaL] formation from [GaHL]+) [3] | pGa(III) [3] | logβ[GaHL]+ ([3]; [L] = 1·10^-4 M) | logβ[GaL] [3, 4] | logβ[GaL] ([3]; UV-Vis (metal–metal competition) titrations, [L] = 1·10^-4 M) | SMILES
-1.57 | 24.1 | 2.87 | 22.6 | 29.45 (1) | 26.58 (4) | – | O=C1CCCCCN(O)C(=O)CCCNC(=O)CCCCCN(O)C(=O)CCCNC(=O)CCCCCN(O)C(=O)CCCN1 [FOX 3-5]
-1.9 | 27.0 | – | 25.2 | – | – | 29.52 (6) | O=C1CCCCCN(O)C(=O)CCNC(=O)CCCCCN(O)C(=O)CCNC(=O)CCCCCN(O)C(=O)CCN1 [FOX 2-5]
-3.02 | 24.3 | 2.56 | 21.8 | 28.84 (5) | 26.28 (1) | – | O=C1CCCCN(O)C(=O)CCNC(=O)CCCCN(O)C(=O)CCNC(=O)CCCCN(O)C(=O)CCN1 [FOX 2-4]
